Experimental data taken from patent US8778643B2, “Methods for increasing lipid levels and producing triacylglycerols in algae” (priority 2012, dated 2014).
Read-outs that look alike come from different tables or passages of the source.

How the values were obtained:
[1] = tested on: Nannochloropsis salina; details: increase of lipid production, N. salina, best conc. 10 nM
Method: Stock cultures were aerated by stirring with bubbling air (homemade manifold with Petco air pump, 2-4% CO2) or by orbital shaking (Thermo Scientific MAXQ 2000) at a constant speed of 150 rpm at 22±3° C. with a 16:8 hour light/dark cycle. Stocks were kept at stationary phase for use. Algae were prepared as dictated by culture center.
Compounds were selected based on reported biological activity in non-microalgae organisms. To ensure that compounds retained their quality, they were stored under advised conditions after purchasing from the manufacturer. Solutions of all assay compounds were prepared as 10 mM stock solutions by dissolving in DMSO in 2-dram amber vials and then stored in darkness −20° C. 96-well PCR plates were used to create a stock plate layout that was then transferred to the algae microplates. A plate map was used to distribute each compound to a well based on molecule name, collection number, and CAS number. For 20 μM and 200 nM assay plates, 10 mM compound stock in DMSO was diluted into plate maps of 5 mM and 50 μM assay stocks, respectively.
All materials for assay experiments were autoclaved before each use to maintain axenic algae cultures. Algae species were checked for homogeneity using a TS-100 light microscope (Nikon, Japan). […] Diluted stock solutions were made immediately prior to use for consistency and optimal plate growth. Cell density was measured on a Thermo Scientific Genesys 10S Vis Spectrophotometer (ThermoFisher, San Jose), using a 1 mL cuvette at 680 nm.
Plates were originally run in triplicate, before replicates were increased to quadruplicate, along with a separate control plate to compare growth. Due to extensive evaporation in exterior wells over time, our unique algae plate layout was designed to use the 60 interior wells out of 96 wells for the experiment. The 36 outer wells were filled with Millipore water and media to prevent evaporation and edge effects in the inner algae wells, as well as serve as blanks. The 60 wells with algae contained a total volume of 251 μL (100 μL of media+DMSO compound stock +150 μL dilute algae stock). For 20 μM and 200 nM assay plates, 10 mM compound stock in DMSO is diluted into plate maps of 5 mM and 50 μM assay stocks, respectively. […] Plates were parafilmed during growth to limit the amount of evaporation that can occur. Plates were numbered, and numerically ordered to ensure they got the same shaker space.
The shakers are kept at a constant shaking of 150 rpm. Ambient temperature is 22±3° C.

[2] = DPPH free radical scavenging activity; cited from earlier work
[3] = tested on: Nannochloropsis salina; assay: 500 mL batch culture: growth, dry weight and lipid extract (gravimetric); assay type: cell-based; details: 4 nM
Method: (§1) Batch cultures were grown in 500 mL Pyrex media bottles with stirring and air bubbling (homemade manifold with Petco air pump, 2-4% CO2). Incoming air was sterile filtered by Polyvent 4 disposable filters (Whatman, Kent, UK). […] To minimize bacterial contamination, all equipment and materials were autoclaved and media was added to flask in a Purifier Vertical Clean bench (Labconco, Kansas City, Mo.). […] The amount of DMSO is standardized for all experiments to 0.4%.
(§2) For all compound cultures, the 2 mL DMSO stock solution was added to media (without algae) first and mixed well. Control cultures were grown without DMSO. DMSO controls consisted of 0.04-1.0% DMSO. After the addition of algae and media, the container was plugged with a bug stopper vented closure cap and mixed thoroughly. Absorbance is measured immediately for Day 0 analysis. Afterward, absorbance was measured every 1-2 days with a cuvette (1 mL volume) on the Thermo Scientific Genesys 10S V is Spectrophotometer (ThermoFisher, San Jose) at 680 nm.
(§3) Batch cultures were also repeated in triplicate and compared to a control culture grown at the same time. Algae were harvested and lipids were extracted for gravimetric analysis.
Cultures were harvested at day 6 in stationary phase. Cultures were pelleted, lyophilized, and extracted side-by-side. The experiment was performed in triplicate.
The nonpolar algal extracts were harvested from 500 mL cultures when indicated on growth curves, a minimum of 3 days into stationary phase. […] Cells were crushed and nonpolar lipids were extracted by sonication (Fisher Scientific Model 120 Sonic Dismembrator, ThermoFisher, San Jose) for 1 minute in chloroform, followed by chloroform-methanol extractions, washed with PBS butter, and dried under vacuum.^55-60 The crude non-polar algae extracts were then analyzed by ^1H Nuclear Magnetic Resonance (^1H NMR) for verification of TAG presence and examination of the purity of the extract (determination of level of chlorophyll).
(§4) Cell density was monitored by measuring absorbance at 680 nm every 1-2 days.
(§5) 500-mL cultures were harvested 6 days into stationary phase based on absorbance values. Cells were concentrated by centrifugation and lyophilization to remove water. Nonpolar lipids were extracted by sonication and solvent (chloroform-methanol and PBS buffer). […] Changes in lipid levels for batch cultures were determined by crude lipid extract mass.

[4] = tested on: fatty acid and sterol synthesis; details: cited from earlier work
[5] = tested on: Phaeodactylum tricornutum; assay: 500 mL batch culture: growth, dry weight and lipid extract (gravimetric); assay type: cell-based; details: P. tricornutum, 500 mL culture, 120 nM
Method: as §1, §2, §3
The nonpolar algal extracts were harvested from 500 mL cultures when indicated on growth curves, a minimum of 3 days into stationary phase.
as §4, §5

[6] = target: Cdk2/cyclin A (Homo sapiens, UniProt P24941); details: Cdk2/cyclin A; cited from earlier work
[7] = target: c-Jun N-terminal kinase; details: cited from earlier work
[8] = target: Cdk2/cyclin E (Homo sapiens, UniProt P24941); details: cited from earlier work
[9] = tested on: Nannochloris sp.; assay: Microplate assay: growth (absorbance 680 nm) and intracellular lipids (Nile Red fluorescence); assay type: cell-based; details: for Absorbance (percent increase) / Nile Red percent increase: initial microplate screen, relative to control; for Nile Red Fluorescence % Increase: initial screening, p<0.05
[10] = tested on: Nannochloropsis oculata; details: N. oculata
[11] = target: PKA (Homo sapiens, UniProt P17612); details: cited from earlier work
[12] = target: PKC; details: cited from earlier work
[13] = tested on: Phaeodactylum tricornutum; assay: Microplate assay: growth (absorbance 680 nm) and intracellular lipids (Nile Red fluorescence); assay type: cell-based
[14] = target: EGFR tyrosine kinase (Homo sapiens, UniProt P00533); details: cited from earlier work
[15] = target: phosphatidylinositol-specific phospholipase C (PI-PLC); details: cited from earlier work
[16] = target: histone lysine methyltransferase G9a (Homo sapiens, UniProt Q96KQ7); details: cited from earlier work
Chain of histone lysine methyltransferase G9a (Q96KQ7 whole entry): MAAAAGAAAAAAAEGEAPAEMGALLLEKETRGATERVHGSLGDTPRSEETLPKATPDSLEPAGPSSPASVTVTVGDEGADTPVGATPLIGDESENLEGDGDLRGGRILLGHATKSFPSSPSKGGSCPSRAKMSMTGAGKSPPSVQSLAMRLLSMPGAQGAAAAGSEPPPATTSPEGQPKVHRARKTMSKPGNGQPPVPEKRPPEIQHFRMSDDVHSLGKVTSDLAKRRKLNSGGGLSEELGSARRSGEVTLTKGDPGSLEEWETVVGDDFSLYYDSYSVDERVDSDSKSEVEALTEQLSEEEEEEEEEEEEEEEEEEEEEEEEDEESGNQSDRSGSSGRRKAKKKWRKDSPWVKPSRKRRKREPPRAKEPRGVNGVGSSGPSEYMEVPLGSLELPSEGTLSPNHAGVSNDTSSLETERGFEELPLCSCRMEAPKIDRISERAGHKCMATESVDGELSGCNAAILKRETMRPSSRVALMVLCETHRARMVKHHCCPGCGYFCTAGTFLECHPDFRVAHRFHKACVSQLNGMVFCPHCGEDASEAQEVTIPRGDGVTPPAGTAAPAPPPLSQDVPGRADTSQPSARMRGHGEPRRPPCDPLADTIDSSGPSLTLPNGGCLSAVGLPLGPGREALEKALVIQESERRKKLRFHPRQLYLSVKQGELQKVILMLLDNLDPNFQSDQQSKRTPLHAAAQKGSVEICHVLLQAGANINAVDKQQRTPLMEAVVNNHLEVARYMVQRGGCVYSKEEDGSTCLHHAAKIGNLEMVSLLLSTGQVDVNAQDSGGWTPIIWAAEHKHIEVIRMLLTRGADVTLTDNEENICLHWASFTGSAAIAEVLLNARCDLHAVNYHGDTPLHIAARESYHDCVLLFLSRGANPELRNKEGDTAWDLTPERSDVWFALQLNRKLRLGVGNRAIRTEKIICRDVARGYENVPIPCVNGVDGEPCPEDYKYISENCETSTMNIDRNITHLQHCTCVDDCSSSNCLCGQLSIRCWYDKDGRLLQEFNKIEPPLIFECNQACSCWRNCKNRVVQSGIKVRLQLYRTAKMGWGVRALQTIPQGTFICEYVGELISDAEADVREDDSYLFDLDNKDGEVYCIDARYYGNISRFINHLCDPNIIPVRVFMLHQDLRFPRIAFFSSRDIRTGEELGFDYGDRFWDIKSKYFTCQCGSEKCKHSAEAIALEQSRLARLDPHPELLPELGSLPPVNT

Chain of EGFR tyrosine kinase (P00533 25-1210): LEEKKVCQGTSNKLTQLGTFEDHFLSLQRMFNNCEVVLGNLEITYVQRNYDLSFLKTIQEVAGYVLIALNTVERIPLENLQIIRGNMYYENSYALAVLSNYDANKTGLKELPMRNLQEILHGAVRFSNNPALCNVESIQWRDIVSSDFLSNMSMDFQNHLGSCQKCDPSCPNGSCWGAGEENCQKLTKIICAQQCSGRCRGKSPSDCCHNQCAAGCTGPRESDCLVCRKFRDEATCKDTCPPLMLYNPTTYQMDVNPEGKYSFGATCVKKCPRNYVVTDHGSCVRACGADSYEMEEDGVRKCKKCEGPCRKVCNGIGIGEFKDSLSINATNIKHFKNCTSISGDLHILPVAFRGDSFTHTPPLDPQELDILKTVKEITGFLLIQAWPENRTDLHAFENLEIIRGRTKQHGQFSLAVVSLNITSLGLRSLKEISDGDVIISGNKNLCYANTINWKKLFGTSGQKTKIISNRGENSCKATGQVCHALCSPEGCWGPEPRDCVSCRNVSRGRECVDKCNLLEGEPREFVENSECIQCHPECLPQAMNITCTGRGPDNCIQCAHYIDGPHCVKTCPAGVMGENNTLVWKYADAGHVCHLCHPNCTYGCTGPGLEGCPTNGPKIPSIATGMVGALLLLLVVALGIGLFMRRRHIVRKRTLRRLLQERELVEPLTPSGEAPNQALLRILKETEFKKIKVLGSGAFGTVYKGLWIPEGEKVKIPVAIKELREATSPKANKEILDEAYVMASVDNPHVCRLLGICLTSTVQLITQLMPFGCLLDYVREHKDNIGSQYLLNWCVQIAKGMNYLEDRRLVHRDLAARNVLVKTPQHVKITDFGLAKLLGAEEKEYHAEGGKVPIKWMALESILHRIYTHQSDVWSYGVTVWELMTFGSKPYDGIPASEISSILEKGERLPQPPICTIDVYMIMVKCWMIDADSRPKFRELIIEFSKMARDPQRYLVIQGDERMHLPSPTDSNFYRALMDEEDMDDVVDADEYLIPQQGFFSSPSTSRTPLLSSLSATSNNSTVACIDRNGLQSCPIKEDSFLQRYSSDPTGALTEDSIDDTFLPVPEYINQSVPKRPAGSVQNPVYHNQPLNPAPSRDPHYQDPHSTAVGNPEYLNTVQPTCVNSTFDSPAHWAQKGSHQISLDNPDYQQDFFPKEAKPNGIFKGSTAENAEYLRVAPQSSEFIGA

## 2-tert-Butyl-4-hydroxyanisole and 3-tert-butyl-4-hydroxyanisole (mixture) [BHA]
[1]
  % Inc: 290.14%
[2]
  IC50: 43 µM
[3]; batch cultures
  increase in lipid levels: 63%
[3]; N. salina, 500 mL culture
  Lipid productivity: 8.1 ± 0.6 mgL^−1day^−1
[3]; N. salina, 500 mL culture, dried lipid extract per dry biomass
  Lipid content: 28.8 ± 11.4 % w/w
[3]; N. salina, 500 mL culture, gravimetric, relative to averaged control without DMSO
  Change in Lipids: 63%
[3]; N. salina, 500 mL culture, mid-exponential growth phase
  Specific Growth Rate: 0.23 ± 0.002 day⁻¹

## NC(=O)c1ncn([C@@H]2O[C@H](COP(=O)(O)O)[C@@H](O)[C@H]2O)c1N [AICAR, [(2R,3S,4R,5R)-5-(4-Carbamoyl-5-amino-imidazol-1-yl)-3,4-dihydroxyoxolan-2-yl]methyl dihydrogen phosphate]
[4]
  inhibitor of fatty acid and sterol synthesis (concentration): synthesis (0.5 mM), inactivates HMG-CoA reductase
[5]
  Lipid productivity: 7.0 ± 0.9 mgL^−1day^−1
[5]; dried lipid extract per dry biomass
  Lipid content: 22.7 ± 1.3 % w/w
[5]; gravimetric, relative to averaged control without DMSO
  Change in Lipids: 45%
[5]; mid-exponential growth phase
  Specific Growth Rate: 0.34 ± 0.04 day⁻¹

## CCCCc1c(-c2ccc(O)cc2)[nH]c2nccnc12 [Aloisine A, 7-n-Butyl-6-(4-hydroxyphenyl)[5H]pyrrolo[2,3-b]pyrazine]
[6]
  IC50: 0.12 µM
[7]
  IC50: 3 to 10 µM
[8]
  IC50: 0.4 µM
[9]; 200 nM
  Absorbance (percent increase): −5.4%
  Nile Red percent increase: 125.9%
[9]; 20 μM
  Absorbance (percent increase): −12.6%
  Nile Red percent increase: 84.1%
[10]; compounds tested at 200 nM, initial screening, p<0.05
  Nile Red Fluorescence % Increase: 117.7%

## CN(C)CCCn1cc(C2=C(c3c[nH]c4ccccc34)C(=O)NC2=O)c2ccccc21 [Bisindolylmaleimide, 2-[1-(3-Dimethylaminopropyl)-1H-indol-3-yl]-3-(1H-indol-3-yl)-maleimide]
[11]
  Ki: 2 µM
[12]
  Ki: 0.01 µM
[9]; 0 h, 1.3 µM
  % Increase based on Nile Red Fluorescence Intensity: 70%
[9]; Nannochloris sp., 49 nM, (water), t=day 0
  % Lipid increase based on Nile red fluorescence intensity: 141%

## O=C(/C=C/c1ccc(O)c(O)c1)c1ccc(O)cc1O [Butein, (E)-1-(2,4-dihydroxyphenyl)-3-(3,4-dihydroxyphenyl)prop-2-en-1-one]
[13]; 54 nM-40 μM (H2O)
  % increase (lipid production): 1-116 (H2O) %
[13]; 40 μM
  % increase (lipid production): 14%
[14]
  IC50: 65 µM

## CCCCCCCCCCCCCCCCCCOCC(COP(=O)([O-])OCC[N+](C)(C)C)OC (stereo not shown) [ET-18-OCH3, 2-Methoxy-3-(octadecyloxy)propyl 2-(trimethylammonio)ethyl phosphate]
[15]
  IC50: 9.6 µM
[10]; 10 μM
  % change in abs: 5.73%
  % in NR fl: 50.05%
[10]; 40 μM
  % change in abs: −5.90%
  % in NR fl: 57.25%

## COC(=O)C=Cc1cc(O)ccc1O [Erbstatin analog, 2,5-Dihydroxymethylcinnamate]
[16]
  IC50: 2.82 µM
[9]; 200 nM
  Absorbance (percent increase): −7.6%
  Nile Red percent increase: 90.7%
[9]; Nannochloris sp., compounds tested at 200 nM
  Nile Red Fluorescence % Increase: 80.2%
[9]; Nannochloris sp., compounds tested at 20 μM
  Nile Red Fluorescence % Increase: 40.5%
